Reference: patent US11498928B2, “Macrocyclic spiroethers as Mcl-1 inhibitors” (ASCENTAGE PHARMA (SUZHOU) CO., LTD., priority 2019, dated 2022)
Read-outs that look alike come from different tables or passages of the source.

Experiments:
[1] = target: T1, Mcl-1 protein (residues 171-323) (Homo sapiens, UniProt Q07820); assay: Inhibition of Mcl-1 by fluorescence polarization (FP) competitive binding assay with FAM-Bid tracer; settings: 2 nM FAM-Bid, 20 nM Mcl-1, 30 min
T1 construct: Tag-free Mcl-1 protein (residues 171-323) was used in the FP assay
Description: Inhibition of Mcl-1 by Fluorescence Polarization (FP) Assay.
The relative binding potency of representative Compounds of the Disclosure was determined by a fluorescence polarization (FP) assay (Long et al, BMC Biotechnology 13:45 (2013)). The method used a fluorescein labelled peptide (FAM-Bid) which binds to the Mcl-1 protein leading to an increased anisotropy measured in milli-polarization (mP) values using a plate reader. […] Tag-free Mcl-1 protein (residues 171-323) was used in the FP assay (Mady et al, Scientific Reports 8: 10210-10210 (2018); Yang et al, ACS Med. Chem. Lett. 3:308-312 (2012)).
A 10-points serial dilution of each compound was prepared in DMSO and 5 μL solution was transferred into flat bottomed, 96-well back plate (final DMSO concentration 5%). 120 μL of Buffer (PBS, 0.01% BGG (Sigma Cat. #SRE0011), 0.01% Triton X-100), containing the Fluorescein labelled peptide (Final concentration 2 nM) and Mcl-1 protein (final concentration 20 nM) was then added. Assay plates were incubated 30 mins at room temperature with gentle shaking before FP was measured on a Biotek Synergy 1MF reader (Ex. 485 nm, Em. 528 nm, Cut off 510 nm) and mP calculated. The binding of increasing doses of test compounds was expressed as a percentage reduction in mP compared to a window established between 5% DMSO only and 100% inhibition controls (no Mcl-1 protein). 10-points dose response curves were plotted with GraphPad software using Sigmoidal Dose-Response Model and the IC50 values were determined by nonlinear regression fitting of the competition curves. Cell Viability Assay (NCI-H929 cells)

[2] = system: OPM-2 cells; assay: Cell viability assay (OPM-2 cells), CCK-8; assay type: cell-based; settings: 5% FBS
Description: OPM-2 cells were obtained from Deutsche Sammlung von Mikroorganismen and Zellkulturen GmbH (DSMZ). Cells were maintained in the recommended culture medium with 10% FBS at 37° C. and an atmosphere of 5% CO2.
The effect of representative Compounds of the Disclosure on cell viability was determined using Cell Counting Kit-8 (CCK-8) assay (Shanghai Life iLab Bio Technology) according to the manufacturer's instructions. Each tested compound was serially diluted in culture medium, 100 μL of the compound dilution was added into 96-well plates. 100 μL of an OPM-2 cell suspension (20000 cells/well) in culture medium were seeded into the corresponding well of the plate and the cells were incubated at 37° C. in an atmosphere of 5% CO2 for 24 hours. In the next day, 20 μL of CCK-8 solution was added to each well of the plate and incubated for 4 hours.
The plates were read at 450 nm on the microplate spectrophotometer (SpectraMax plus 384, Molecular devices). The readings were normalized to the vehicle cells, and the IC50 was calculated by nonlinear regression analysis using GraphPad Prism 6 software.

[3] = system: NCI-H929 cells; assay: Cell viability assay (NCI-H929 cells), CCK-8; assay type: cell-based; settings: 5% FBS
Description: NCI-H929 cells were obtained from American Type Culture Collection (ATCC). Cells were maintained in the recommended culture medium (RPMI 1640) with 10% FBS and 0.05 mM BME at 37° C. and an atmosphere of 5% CO2.
The effect of Compounds on cell viability was determined using Cell Counting Kit-8 (CCK-8) assay according to the manufacturer's instructions. 95 μL of NCI-H929 cell suspension (20000 cells/well) in culture medium were seeded into 96-well plates and cultured 4 hrs. Each tested compound was serially diluted in DMSO, then 5 μL of the compound or DMSO was diluted in 95 μL medium once more. At last, 5 μL of the compound dilution was added to the corresponding well of the cell plate. After the addition of the tested compound, the cells were incubated at 37° C. in an atmosphere of 5% CO2 for 24 hrs. At the end, 10 μL of CCK-8 solution was added to each well of the plate and incubated for 1-4 hours. The plates were read at 450 nm on the microplate reader (BioTek Synergy 1MF). The readings were normalized to the vehicle cells, and the IC50 was calculated by nonlinear regression analysis using GraphPad Prism 6 software. Cell Viability Assay (OPM-2 cells)

[4] = Pharmacokinetic studies in mice (IV and PO); assay type: in vivo; settings: for MRT last: read-out: MRT0-last
Description: Administration: Mice in the IV group was dosed at 2 mg/kg (20% PEG 400+10% Cremophor EL+70% PBS 7.4) via tail vein injection (N=9). Mice in the PO group was dosed at 10 mg/kg (20% PEG 400+10% Cremophor EL+70% PBS 7.4) via oral gavage (N=9). All the mice were fasted overnight before dosing and had free access to food 4 hr post dosing.
Sampling: The animal was restrained manually at the designated time points (0.083, 0.25, 0.5, 1, 2, 4, 6, 8 and 24 hr), approximately 110 μL of blood sample was collected via retro-orbital puncture or cardiac puncture for terminal bleeding under the anesthesia with Isoflurane inhalation into K2EDTA tubes. The blood samples were maintained in wet ice first and centrifuged to obtain plasma (2000 g, 4° C., 5 min) within 15 minutes post sampling. All the plasma samples were stored at approximately −70° C. until analysis.

T1 sequence (Q07820 171-323): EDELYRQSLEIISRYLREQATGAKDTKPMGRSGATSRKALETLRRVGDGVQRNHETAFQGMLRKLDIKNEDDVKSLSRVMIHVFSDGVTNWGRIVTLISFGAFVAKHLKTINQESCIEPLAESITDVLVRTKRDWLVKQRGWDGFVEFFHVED

Row | Compound | IC50 [1] | IC50 ([3]; Homo sapiens, NCI-H929, 24 h) | IC50 ([3]; 24 h) | IC50 ([2]; Homo sapiens, OPM-2, 24 h) | IC50 ([2]; 24 h) | further results
1 | CO[C@@H]1C2=CC(C2)CC(C)S(=O)(=O)NC(=O)c2ccc3c(c2)N(C[C@@H]2CC[C@H]21)C[C@@]1(CCCc2cc(Cl)ccc21)CO3 (mixture of isomers) [7 (mixture)] | 5.1 nM | 2300 nM |  | 5580 nM |  | 
2 | CO[C@H]1C2=CC(C2)CC(C)S(=O)(=O)NC(=O)c2ccc3c(c2)N(C[C@@H]2CC[C@H]21)C[C@@]1(CCCc2cc(Cl)ccc21)CO3 (mixture of isomers) [11 (mixture)] | 5.5 nM | 270 nM |  | 967 nM |  | 
3 | CO[C@@H]1C2=CC(C2)CC(C)S(=O)(=O)NC(=O)c2ccc3c(c2)N(C[C@@H]2CC[C@H]21)C[C@@]1(CCCc2cc(Cl)ccc21)CO3 (single isomer, unassigned) [7 (Isomer 1)] | 4.2 nM |  | 600 nM |  | 1120 nM | 
4 | CO[C@@H]1C2=CC(C2)CC(C)S(=O)(=O)NC(=O)c2ccc3c(c2)N(C[C@@H]2CC[C@H]21)C[C@@]1(CCCc2cc(Cl)ccc21)CO3 (single isomer, unassigned) [7 (Isomer 2)] | 4.2 nM |  | 1900 nM |  | 2960 nM | 
5 | CO[C@H]1C2=CC(C2)CC(C)S(=O)(=O)NC(=O)c2ccc3c(c2)N(C[C@@H]2CC[C@H]21)C[C@@]1(CCCc2cc(Cl)ccc21)CO3 (single isomer, unassigned) [11 (Isomer 1)] | 6.5 nM |  | 86 nM |  | 87 nM | 
6 | CO[C@H]1C2=CC(C2)CC(C)S(=O)(=O)NC(=O)c2ccc3c(c2)N(C[C@@H]2CC[C@H]21)C[C@@]1(CCCc2cc(Cl)ccc21)CO3 (single isomer, unassigned) [11 (Isomer 2)] | 6 nM |  | 2240 nM |  | 3860 nM | 
7 | CO[C@H]1C2=C[C@@H](C2)[C@H](C)[C@@H](C)S(=O)(=O)NC(=O)c2ccc3c(c2)N(C[C@@H]2CC[C@H]21)C[C@@]1(CCCc2c1ccc(Cl)c2F)CS3 (single isomer, unassigned) [22 (isomer 1)] | 13 nM | 700 nM |  | 567 nM |  | 
8 | CO[C@H]1C2=C[C@@H](C2)[C@H](C)CS(=O)(=O)NC(=O)c2ccc3c(c2)N(C[C@@H]2CC[C@H]21)C[C@@]1(CCCc2c1ccc(Cl)c2F)CS3 (single isomer, unassigned) [24 (isomer 1)] | 6.4 nM | 660 nM |  | 670 nM |  | 
9 | CO[C@H]1C2=C[C@H](C2)[C@H](C)CS(=O)(=O)NC(=O)c2ccc3c(c2)N(C[C@@H]2CC[C@H]21)C[C@@]1(CCCc2c1ccc(Cl)c2F)CS3 (single isomer, unassigned) [24 (isomer 2)] | 4.8 nM | 4300 nM |  | 3300 nM |  | 
10 | CO[C@H]1C2=C[C@H](C2)[C@H](C)N(C[C@@H]2CCCO2)S(=O)(=O)NC(=O)c2ccc3c(c2)N(C[C@@H]2CC[C@H]21)C[C@@]1(CCCc2cc(Cl)ccc21)CO3 (single isomer, unassigned) [30 (isomer 1)] | 6.2 nM | 2900 nM |  | 2310 nM |  | 
11 | CO[C@H]1C2=C[C@H](C2)[C@H](C)N(C[C@H]2CCCO2)S(=O)(=O)NC(=O)c2ccc3c(c2)N(C[C@@H]2CC[C@H]21)C[C@@]1(CCCc2cc(Cl)ccc21)CO3 (single isomer, unassigned) [30 (isomer 2)] | 5.1 nM | 4700 nM |  | 4770 nM |  | 
12 | CO[C@H]1C2=C[C@@H](C2)[C@H](C)N(C[C@@H]2CCCO2)S(=O)(=O)NC(=O)c2ccc3c(c2)N(C[C@@H]2CC[C@H]21)C[C@@]1(CCCc2cc(Cl)ccc21)CO3 (single isomer, unassigned) [30 (isomer 3)] | 14 nM | 5200 nM |  | 6100 nM |  | 
13 | CO[C@H]1/C=C/C[C@H](C)[C@@H](C)S(=O)(=O)NC(=O)c2ccc3c(c2)N(C[C@@H]2CC[C@H]21)C[C@@]1(CCCc2cc(Cl)ccc21)CO3 [AMG-176, reference compound] |  | 138 nM |  | 335 nM |  | F ([4]; PO 10 mg/kg vs IV 2 mg/kg): 97.9%; AUC(0-inf) ([4]; mouse, plasma, IV 2 mg/kg): 7450 ng·h/mL; AUC(0-t) ([4]; mouse, plasma, IV 2 mg/kg): 6800 ng·h/mL; clearance ([4]; mouse, plasma, IV 2 mg/kg): 4.5 mL/min/kg; half-life ([4]; mouse, plasma, IV 2 mg/kg): 7.2 h; Cmax ([4]; mouse, plasma, IV 2 mg/kg, read-out: C0/Cmax (C0)): 1550 ng/mL; MRT last ([4]; mouse, plasma, IV 2 mg/kg): 6.3 h; Vd ([4]; mouse, plasma, IV 2 mg/kg, read-out: Vss): 2.3 L/kg; AUC(0-inf) ([4]; mouse, plasma, PO 10 mg/kg): 36500 ng·h/mL; AUC(0-t) ([4]; mouse, plasma, PO 10 mg/kg): 32700 ng·h/mL; Tmax ([4]; mouse, plasma, PO 10 mg/kg): 1 h; half-life ([4]; mouse, plasma, PO 10 mg/kg): 7.4 h; Cmax ([4]; mouse, plasma, PO 10 mg/kg, read-out: C0/Cmax (Cmax)): 2500 ng/mL; MRT last ([4]; mouse, plasma, PO 10 mg/kg): 7.4 h; Vd/F ([4]; mouse, plasma, PO 10 mg/kg, read-out: Vz/F): 2.9 L/kg
14 | CO[C@H]1C2CC(CCS(=O)(=O)NC(=O)c3ccc4c(c3)N(C[C@@H]3CC[C@H]31)C[C@@]1(CCCc3cc(Cl)ccc31)CO4)C2 [compound 2] |  | 6.04 nM |  | 10 nM |  | 

Now from value to molecule, other results behind:

Row | IC50 [1] | IC50 ([3]; Homo sapiens, NCI-H929, 24 h) | IC50 ([3]; 24 h) | Compound | IC50 ([2]; Homo sapiens, OPM-2, 24 h) | IC50 ([2]; 24 h) | further results
15 | 4.8 nM |  | > 10000 nM | CO[C@H]1C2=CC(C2)[C@@H](C)[C@H](C)S(=O)(=O)NC(=O)c2ccc3c(c2)N(C[C@@H]2CC[C@H]21)C[C@@]1(CCCc2cc(Cl)ccc21)CO3 (single isomer, unassigned) [12 (Isomer 1)] | 17200 nM |  | 
16 | 15 nM |  | 4600 nM | CO[C@H]1C2=CC(C2)[C@@H](C)[C@H](C)S(=O)(=O)NC(=O)c2ccc3c(c2)N(C[C@@H]2CC[C@H]21)C[C@@]1(CCCc2cc(Cl)ccc21)CO3 (single isomer, unassigned) [12 (Isomer 2)] |  | 12300 nM | 
17 | 14 nM |  | 160 nM | CO[C@H]1C2=CC(C2)[C@H](C)N(C)S(=O)(=O)NC(=O)c2ccc3c(c2)N(C[C@@H]2CC[C@H]21)C[C@@]1(CCCc2cc(Cl)ccc21)CO3 (single isomer, unassigned) [26 (isomer 1)] |  | 412 nM | 
18 | 3.3 nM |  | 2260 nM | CO[C@H]1C2=CC(C2)[C@H](C)N(C)S(=O)(=O)NC(=O)c2ccc3c(c2)N(C[C@@H]2CC[C@H]21)C[C@@]1(CCCc2cc(Cl)ccc21)CO3 (single isomer, unassigned) [26 (isomer 2)] |  | 2240 nM | 
19 | 13 nM |  | 1600 nM | CO[C@@H]1C2=CC(C2)[C@H](C)N(C)S(=O)(=O)NC(=O)c2ccc3c(c2)N(C[C@@H]2CC[C@H]21)C[C@@]1(CCCc2cc(Cl)ccc21)CO3 (single isomer, unassigned) [27 (isomer 1)] |  | 1440 nM | 
20 | 3.4 nM |  | 5000 nM | CO[C@@H]1C2=CC(C2)[C@H](C)N(C)S(=O)(=O)NC(=O)c2ccc3c(c2)N(C[C@@H]2CC[C@H]21)C[C@@]1(CCCc2cc(Cl)ccc21)CO3 (single isomer, unassigned) [27 (isomer 2)] |  | 3610 nM | 
